Reference: paper PMC7567501 (Journal of Enzyme Inhibition and Medicinal Chemistry, 2019)
Where two headings read alike, the source gives them in different places.

Experiments:
AChE = target: T1, AChE (Electrophorus electricus, UniProt O42275); experiment: biochemical; parameters: species or system Electrophorus electricus (electric eel)
T1 construct: extracted from Electrophorus electricus (electric eel); purchased Sigma-Aldrich; host or cells: Electrophorus electricus (extracted)
Method: The electronic spectra and the AChE inhibition assays were performed in a 1-cm path length quartz cell with a Perkin Elmer Lambda 35 spectrophotometer equipped with a temperature programmer PTP1 + 1 Peltier System (T = 25.0 ± 0.1 °C). The enzyme AChE 500 U, extracted from Electrophorus electricus (electric eel), was purchased from Sigma-Aldrich.
The enzymatic activity of AChE was determined using an adaptation of the Ellman’s method, as described previously[29]^,[32]. Firstly, a stock solution of AChE was prepared by dissolving enzyme 500 U in 10 mL of tris(hydroxymethyl)aminomethane (TRIS) buffer (50 mM, pH 8). Then, 4–(2-hydroxyethyl)-1-piperazineethanesulfonic acid (HEPES) buffer was used for further dilution of the enzyme solution therefore obtaining the final working solution of AChE. The assay solution consisted of 374 µL of HEPES buffer (50 mM and pH 8.0), a variable volume (10–50 µL) of the compound’s stock solution (1 mg/mL of MeOH), 476 µL of 3 mM bis(3-carboxy-4-nitrophenyl) disulphide (DTNB), 25 µL of AChE stock solution and the necessary amount of methanol to attain the same volume of sample mixture in a 1 mL cuvette. After mixing, samples were left to incubate for 15 min and then 75 µL of 16 mM acetylthiocholine iodide (AChI) solution was added and immediately the reaction was monitored at 405 nm for 5 min. Firstly, enzyme activity was determined by measuring the rate of enzymatic reaction in solution by recording absorbance (with or without enzyme) at 405 nm. To calculate the percent inhibition of AChE, the enzyme activity in the presence of increasing concentrations of the test compound, as well as for a blank reaction (methanol without compounds), were measured at 405 nm.
Where v1is the initial reaction rate in the presence of the inhibitor and v0 is the initial rate of the control reaction. The curves of inhibition were obtained using a plot of percentage of enzymatic inhibition versus inhibitor concentration, and a calibration curve was obtained from which the linear regression parameters were obtained.

Aβ1-42 [1] = target: T2, Aβ1-42 (Homo sapiens, UniProt P05067); experiment: biochemical; conditions: self-mediated Aβ42 aggregation without copper, inhibitor 80 µM, ThT fluorescence; for inhibition at 80 µM: read-out: Aβ aggregation inhibition, Self-Aβ aggr
T2 construct: Amyloid β-peptide (1–42), Aβ1-42, was purchased from GeneCust; purchased GeneCust
Source text: (§1) The Aβ amyloid plaques are one of the main hallmarks of AD and they result from over production and aggregation of β-amyloid peptide, which can accumulate outside the neurons, by self-mediated or Cu^2+-induced process, interfering with the synaptic impairment, neurotransmission and memory. Therefore, anti-AD drugs have been designed aimed to disrupt and disaggregate the Aβ’s fibrils into monomers, obtaining non-toxic forms of β-secretase’s products. To assess the effect of these new hybrids in the inhibition of amyloid peptide aggregation, a selection of the compounds was in vitro assayed, based on the thioflavin T (ThT) method. Indeed ThT is a histochemical dye able to create ionic or hydrophobic interactions with the peptide β–sheets, the predominant secondary structure of the amyloid fibrils in aqueous solutions[36]. This binding interactions can be monitored by fluorimetry since the presence of ThT-fibrils increases the absorbance and the emission of the ThT dye, and induces red shifts on the absorbance (from 385 to 446 nm) and emission peaks (from 445 to 485 nm)[14]. All the measurements were performed after incubation of the self-mediated and Cu^2+-induced Aβ aggregates in the presence/absence of the herein studied compounds. […]. […] This may be rationalised on the basis of their copper chelating capacity, as previously shown by other metal chelating compounds[14]^,[38]. Furthermore, despite some exceptions (e.g. 20 and 24), the increase in linker length and the chloro TAC substitution induce some small negative effects in the inhibition of Aβ self-aggregation.
(§2) For the study of the β-amyloid (Aβ) aggregation, the ThT fluorescence assay was performed using a Varian Cary Eclipse fluorimeter at the following wavelengths: excitation (446 nm) and emission (485 nm). Amyloid β-peptide (1–42), Aβ1-42, was purchased from GeneCust as a lyophilised powder stored at −20 °C. TEM assays were performed with a Hitachi H8100 transmission electron microscope with a LaB6 filament (200 kV, 10000–20000 × magnification) at MicroLab/IST.
(§3) Among all the methods to measure the aggregation of Aβ1-42, the assay based on Thioflavin T (ThT) is the standard procedure based on the fluorescence of this dye[49]^,[50]. This test is performed with Aβ1-42 peptide previously prepared by dissolving it in 1,1,1,3,3,3–hexafluoro-2-propanol (HFIP), an organic solvent useful to solubilise and monomerize the β–sheet protein aggregates and reserve them in the fridge. Films are re-dissolved in an Eppendorf tube with a fresh solution of a mixture of CH3CN/Na2CO3/NaOH, to have a stable stock solution, and afterwards, added to an optimised fibrillation phosphate buffer. The samples were prepared using MeOH (1 mg/mL) as solvent, followed by incubation in a water bath for 24 h at 37 °C with gentle shaking. After incubation, the samples were added to a 96-well plate (BD Falcon) with 180 µL of 5 µM ThT in 50 mM glycine-NaOH (pH 8.5) buffer. Blank samples were prepared for each concentration in a similar way, devoid of peptide. After 5-min incubation with the dye, the ThT fluorescence was measured at 446 nm (excitation) and 485 nm (emission).

Aβ1-42 [2] = target: T2, Aβ1-42; experiment: Inhibition of Cu2+-induced Aβ1-42 aggregation, thioflavin T fluorescence; type: biochemical; conditions: Aβ42 aggregation with copper (40 µM), inhibitor 80 µM, ThT fluorescence; for inhibition at 80 µM: read-out: Aβ aggregation inhibition, Cu-ind Aβ aggr
Source text: as §1, §2
as §3, with “The samples were prepared using MeOH (1 mg/mL) as solvent, followed by incubation in a water bath for 24 h at 37 °C with gentle shaking. After incubation, the samples were added to a 96-well plate (BD Falcon) with 180 µL of 5 µM ThT in 50 mM glycine-NaOH (pH 8.5) buffer. Blank samples were prepared for each concentration in a similar way, devoid of peptide.” left out

[3] = AChE from Electric eel, mean of five independent experiments, read-out: AChE inhibition IC50

T1 sequence (O42275 24-633): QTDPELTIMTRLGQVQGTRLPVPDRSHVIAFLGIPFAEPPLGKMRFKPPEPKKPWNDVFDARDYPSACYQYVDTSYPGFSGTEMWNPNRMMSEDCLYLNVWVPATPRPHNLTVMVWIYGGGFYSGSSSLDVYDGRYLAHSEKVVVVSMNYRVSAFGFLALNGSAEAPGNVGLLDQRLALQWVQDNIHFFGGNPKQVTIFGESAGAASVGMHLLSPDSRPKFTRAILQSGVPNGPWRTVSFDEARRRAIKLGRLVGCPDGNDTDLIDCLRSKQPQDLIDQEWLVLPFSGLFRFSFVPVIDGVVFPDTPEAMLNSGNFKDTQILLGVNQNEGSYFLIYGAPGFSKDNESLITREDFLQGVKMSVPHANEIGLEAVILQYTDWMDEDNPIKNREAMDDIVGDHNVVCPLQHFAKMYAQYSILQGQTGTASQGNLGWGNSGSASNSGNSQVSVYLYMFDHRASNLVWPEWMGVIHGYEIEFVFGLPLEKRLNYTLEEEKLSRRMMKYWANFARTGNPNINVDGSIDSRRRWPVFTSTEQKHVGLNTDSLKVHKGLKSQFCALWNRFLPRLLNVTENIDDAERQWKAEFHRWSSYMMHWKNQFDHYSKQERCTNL
T2 sequence (P05067 672-713 limits assumed): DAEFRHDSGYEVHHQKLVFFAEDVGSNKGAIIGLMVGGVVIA

Structure (SMILES)	IC50 (AChE; [3])	inhibition at 80 µM (Aβ1-42 [1])	inhibition at 80 µM (Aβ1-42 [2])	IC50 (AChE)	Aβ aggregation inhibition, Self-Aβ aggr (Aβ1-42 [1])	Aβ aggregation inhibition, Cu-ind Aβ aggr (Aβ1-42 [2])
COc1cccc2cc(C(=O)NCCCNc3c4c(nc5cc(Cl)ccc35)CCCC4)oc12 [Compound 19, N-(3-((6-chloro-1,2,3,4-tetrahydroacridin-9-yl)amino)propyl)-7-methoxybenzofuran-2-carboxamide]	130 nM	57.8%				
COc1cccc2cc(C(=O)NCCCCNc3c4c(nc5cc(Cl)ccc35)CCCC4)oc12 [Compound 20, N-(4-((6-chloro-1,2,3,4-tetrahydroacridin-9-yl)amino)butyl)-7-methoxybenzofuran-2-carboxamide]	670 nM	64.4%				
O=C(NCCCNc1c2c(nc3ccccc13)CCCC2)c1cc2cccc(O)c2o1 [Compound 21, 7-Hydroxy-N-(3-((1,2,3,4-tetrahydroacridin-9-yl)amino)propyl)benzofuran-2-carboxamide]	810 nM	44%	50.1%			
O=C(NCCCNc1c2c(nc3cc(Cl)ccc13)CCCC2)c1cc2cccc(O)c2o1 [Compound 23, N-(3-((6-chloro-1,2,3,4-tetrahydroacridin-9-yl)amino)propyl)-7-hydroxybenzofuran-2-carboxamide]				130 nM	31.5%	52.5%
O=C(NCCCCNc1c2c(nc3cc(Cl)ccc13)CCCC2)c1cc2cccc(O)c2o1 [Compound 24, N-(4-((6-chloro-1,2,3,4-tetrahydroacridin-9-yl)amino)butyl)-7-hydroxybenzofuran-2-carboxamide]	610 nM	43.4%	53.4%			
